The text below walks through data of publication PMC7026418, “The kinase polypharmacology landscape of clinical PARP inhibitors” (Scientific Reports, 2020).

Among the targets are MAP3K4 (Homo sapiens, UniProt Q9Y6R4); PAK1 (Homo sapiens, UniProt Q13153); PLK1 (Homo sapiens, UniProt P53350).
Holding throughout (test): biochemical
Common to all, as to design: DiscoveRx KINOMEscan active site-directed competition binding; percent of control kinase bound to immobilised ligand

The next assay concerns the target T1, MERTK (Homo sapiens, UniProt Q12866).
T1 sequence (Q12866 1-999): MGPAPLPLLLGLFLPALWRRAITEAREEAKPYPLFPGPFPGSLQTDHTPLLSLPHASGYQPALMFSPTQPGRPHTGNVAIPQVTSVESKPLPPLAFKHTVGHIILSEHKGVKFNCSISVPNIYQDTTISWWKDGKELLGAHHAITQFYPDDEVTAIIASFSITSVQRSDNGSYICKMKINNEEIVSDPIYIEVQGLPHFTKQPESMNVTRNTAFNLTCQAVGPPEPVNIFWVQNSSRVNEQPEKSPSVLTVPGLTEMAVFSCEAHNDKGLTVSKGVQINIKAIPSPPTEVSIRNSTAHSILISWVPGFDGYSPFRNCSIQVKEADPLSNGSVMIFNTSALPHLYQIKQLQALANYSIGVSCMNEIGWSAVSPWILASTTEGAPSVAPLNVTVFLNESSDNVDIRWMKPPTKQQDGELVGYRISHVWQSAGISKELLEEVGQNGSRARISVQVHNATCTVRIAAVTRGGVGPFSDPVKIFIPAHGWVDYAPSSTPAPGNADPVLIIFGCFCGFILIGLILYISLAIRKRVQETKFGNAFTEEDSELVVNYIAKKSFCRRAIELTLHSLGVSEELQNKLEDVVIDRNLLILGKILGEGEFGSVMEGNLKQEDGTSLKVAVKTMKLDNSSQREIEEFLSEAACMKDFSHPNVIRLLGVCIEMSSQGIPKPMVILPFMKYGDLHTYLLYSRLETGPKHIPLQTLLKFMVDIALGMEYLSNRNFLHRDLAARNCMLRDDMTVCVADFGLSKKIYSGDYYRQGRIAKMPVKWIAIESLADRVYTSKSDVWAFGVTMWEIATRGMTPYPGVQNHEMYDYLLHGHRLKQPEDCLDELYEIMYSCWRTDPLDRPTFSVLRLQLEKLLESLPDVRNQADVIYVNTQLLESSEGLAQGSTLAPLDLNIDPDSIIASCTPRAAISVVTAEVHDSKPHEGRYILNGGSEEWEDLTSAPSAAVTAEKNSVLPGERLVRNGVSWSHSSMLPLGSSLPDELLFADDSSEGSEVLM

Another assay has as its target T2, MRCKA (Homo sapiens, UniProt Q5VT25).
T2 construct: gene CDC42BPA

The target of the next assay is T3, TAOK3 (Homo sapiens, UniProt Q9H2K8).
T3 sequence (Q9H2K8 1-898): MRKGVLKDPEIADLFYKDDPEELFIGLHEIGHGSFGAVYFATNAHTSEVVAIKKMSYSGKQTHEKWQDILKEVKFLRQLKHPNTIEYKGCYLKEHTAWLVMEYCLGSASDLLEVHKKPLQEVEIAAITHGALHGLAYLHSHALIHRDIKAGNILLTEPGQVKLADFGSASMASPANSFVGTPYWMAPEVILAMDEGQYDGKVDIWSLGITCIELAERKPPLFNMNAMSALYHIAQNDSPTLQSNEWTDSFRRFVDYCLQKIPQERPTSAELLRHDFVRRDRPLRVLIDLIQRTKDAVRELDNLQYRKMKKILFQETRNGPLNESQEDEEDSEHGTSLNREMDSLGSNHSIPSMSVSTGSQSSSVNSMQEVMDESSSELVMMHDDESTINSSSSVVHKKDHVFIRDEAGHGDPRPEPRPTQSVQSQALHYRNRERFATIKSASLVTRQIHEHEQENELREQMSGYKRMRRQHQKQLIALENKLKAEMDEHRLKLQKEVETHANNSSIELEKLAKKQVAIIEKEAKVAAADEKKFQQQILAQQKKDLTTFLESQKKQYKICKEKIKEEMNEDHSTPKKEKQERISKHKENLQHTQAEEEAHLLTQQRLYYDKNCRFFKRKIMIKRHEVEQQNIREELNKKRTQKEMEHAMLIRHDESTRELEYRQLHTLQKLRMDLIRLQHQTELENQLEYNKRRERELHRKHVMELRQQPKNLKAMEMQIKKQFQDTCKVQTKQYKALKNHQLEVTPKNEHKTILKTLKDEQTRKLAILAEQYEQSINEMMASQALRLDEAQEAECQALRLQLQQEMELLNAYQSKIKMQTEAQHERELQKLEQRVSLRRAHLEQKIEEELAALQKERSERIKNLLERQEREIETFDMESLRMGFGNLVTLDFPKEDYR

For the next assay, the target named is T4, YSK1 (Homo sapiens, UniProt O00506).
T4 construct: gene STK25

A further assay has as its target T5, p38-beta (Homo sapiens, UniProt Q15759).
T5 construct: gene MAPK11

Setting [1] is: read-out: Rucaparib / %Ctrl @ 10000nM, binding competition, % of control.
Setting [2] is: read-out: Talazoparib (BMN 673) / %Ctrl @ 10000nM.
Where [3] appears, read: read-out: Niraparib (MK-4827) / %Ctrl @ 10000nM.
Where [4] appears, read: read-out: Olaparib / %Ctrl @ 10000nM.

Where two headings read alike, the source gives them in different places.

T5 sequence (Q15759 whole entry): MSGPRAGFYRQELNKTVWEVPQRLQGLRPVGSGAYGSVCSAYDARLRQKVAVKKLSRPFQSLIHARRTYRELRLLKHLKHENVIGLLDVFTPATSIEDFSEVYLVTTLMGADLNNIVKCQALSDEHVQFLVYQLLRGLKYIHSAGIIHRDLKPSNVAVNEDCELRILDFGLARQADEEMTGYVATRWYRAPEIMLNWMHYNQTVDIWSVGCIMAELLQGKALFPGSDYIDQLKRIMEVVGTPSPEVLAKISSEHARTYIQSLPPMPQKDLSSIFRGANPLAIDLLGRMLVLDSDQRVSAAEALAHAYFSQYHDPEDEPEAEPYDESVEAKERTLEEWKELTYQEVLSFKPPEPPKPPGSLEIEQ
MAP3K4, sequence (Q9Y6R4 whole entry): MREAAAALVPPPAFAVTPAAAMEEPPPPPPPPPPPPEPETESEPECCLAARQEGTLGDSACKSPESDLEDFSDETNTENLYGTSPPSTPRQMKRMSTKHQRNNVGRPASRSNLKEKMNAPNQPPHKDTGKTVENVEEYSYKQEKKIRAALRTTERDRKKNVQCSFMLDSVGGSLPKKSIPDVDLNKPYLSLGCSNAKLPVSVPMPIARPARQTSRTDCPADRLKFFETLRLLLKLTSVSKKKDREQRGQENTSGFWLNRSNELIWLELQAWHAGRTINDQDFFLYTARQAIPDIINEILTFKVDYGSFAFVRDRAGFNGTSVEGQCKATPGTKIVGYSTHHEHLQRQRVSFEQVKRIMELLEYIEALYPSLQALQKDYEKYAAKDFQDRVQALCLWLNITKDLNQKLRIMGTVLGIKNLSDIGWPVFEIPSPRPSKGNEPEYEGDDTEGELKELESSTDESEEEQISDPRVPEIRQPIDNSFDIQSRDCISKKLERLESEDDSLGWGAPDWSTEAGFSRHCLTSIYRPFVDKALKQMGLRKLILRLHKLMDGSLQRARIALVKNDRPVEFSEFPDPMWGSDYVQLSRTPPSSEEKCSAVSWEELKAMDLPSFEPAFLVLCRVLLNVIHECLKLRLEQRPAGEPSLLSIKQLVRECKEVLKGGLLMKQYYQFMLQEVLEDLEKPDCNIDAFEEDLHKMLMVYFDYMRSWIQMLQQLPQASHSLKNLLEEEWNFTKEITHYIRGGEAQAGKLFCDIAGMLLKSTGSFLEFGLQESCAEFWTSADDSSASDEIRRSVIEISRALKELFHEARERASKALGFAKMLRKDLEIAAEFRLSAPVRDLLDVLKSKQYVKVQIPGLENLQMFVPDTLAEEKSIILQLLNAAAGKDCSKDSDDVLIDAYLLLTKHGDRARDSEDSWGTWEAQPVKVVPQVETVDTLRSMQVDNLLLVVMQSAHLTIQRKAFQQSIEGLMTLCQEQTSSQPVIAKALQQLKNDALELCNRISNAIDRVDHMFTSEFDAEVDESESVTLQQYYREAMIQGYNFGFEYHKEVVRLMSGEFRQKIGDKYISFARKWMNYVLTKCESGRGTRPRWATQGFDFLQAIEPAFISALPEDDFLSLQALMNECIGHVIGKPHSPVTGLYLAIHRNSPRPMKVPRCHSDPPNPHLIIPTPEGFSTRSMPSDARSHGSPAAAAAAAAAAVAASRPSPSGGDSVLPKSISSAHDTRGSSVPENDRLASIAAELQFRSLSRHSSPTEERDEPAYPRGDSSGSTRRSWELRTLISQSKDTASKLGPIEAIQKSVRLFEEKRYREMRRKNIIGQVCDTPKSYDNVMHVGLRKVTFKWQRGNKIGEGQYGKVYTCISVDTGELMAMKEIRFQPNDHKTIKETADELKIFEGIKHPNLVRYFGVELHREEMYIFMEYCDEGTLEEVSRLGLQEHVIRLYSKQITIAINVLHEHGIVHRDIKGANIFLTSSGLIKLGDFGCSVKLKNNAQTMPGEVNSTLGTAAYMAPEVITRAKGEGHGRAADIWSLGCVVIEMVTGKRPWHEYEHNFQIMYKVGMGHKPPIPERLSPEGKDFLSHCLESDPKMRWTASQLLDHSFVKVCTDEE
PLK1, sequence (P53350 whole entry): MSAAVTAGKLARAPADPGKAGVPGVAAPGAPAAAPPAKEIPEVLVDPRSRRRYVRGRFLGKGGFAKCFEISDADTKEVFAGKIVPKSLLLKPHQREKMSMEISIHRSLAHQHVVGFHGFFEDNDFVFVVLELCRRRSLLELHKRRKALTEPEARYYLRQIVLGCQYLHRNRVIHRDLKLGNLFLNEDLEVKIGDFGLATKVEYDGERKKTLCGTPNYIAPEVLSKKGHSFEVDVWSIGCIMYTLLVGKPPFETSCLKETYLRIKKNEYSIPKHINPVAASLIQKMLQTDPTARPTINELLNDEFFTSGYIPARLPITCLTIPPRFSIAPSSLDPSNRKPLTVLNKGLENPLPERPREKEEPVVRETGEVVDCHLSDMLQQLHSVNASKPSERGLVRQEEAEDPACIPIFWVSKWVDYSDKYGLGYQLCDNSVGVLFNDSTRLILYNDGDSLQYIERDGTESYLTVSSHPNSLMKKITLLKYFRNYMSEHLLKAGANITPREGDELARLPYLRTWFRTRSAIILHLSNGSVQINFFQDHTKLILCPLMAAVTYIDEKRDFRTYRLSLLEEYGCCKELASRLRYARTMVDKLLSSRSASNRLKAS
T2 sequence (Q5VT25 whole entry): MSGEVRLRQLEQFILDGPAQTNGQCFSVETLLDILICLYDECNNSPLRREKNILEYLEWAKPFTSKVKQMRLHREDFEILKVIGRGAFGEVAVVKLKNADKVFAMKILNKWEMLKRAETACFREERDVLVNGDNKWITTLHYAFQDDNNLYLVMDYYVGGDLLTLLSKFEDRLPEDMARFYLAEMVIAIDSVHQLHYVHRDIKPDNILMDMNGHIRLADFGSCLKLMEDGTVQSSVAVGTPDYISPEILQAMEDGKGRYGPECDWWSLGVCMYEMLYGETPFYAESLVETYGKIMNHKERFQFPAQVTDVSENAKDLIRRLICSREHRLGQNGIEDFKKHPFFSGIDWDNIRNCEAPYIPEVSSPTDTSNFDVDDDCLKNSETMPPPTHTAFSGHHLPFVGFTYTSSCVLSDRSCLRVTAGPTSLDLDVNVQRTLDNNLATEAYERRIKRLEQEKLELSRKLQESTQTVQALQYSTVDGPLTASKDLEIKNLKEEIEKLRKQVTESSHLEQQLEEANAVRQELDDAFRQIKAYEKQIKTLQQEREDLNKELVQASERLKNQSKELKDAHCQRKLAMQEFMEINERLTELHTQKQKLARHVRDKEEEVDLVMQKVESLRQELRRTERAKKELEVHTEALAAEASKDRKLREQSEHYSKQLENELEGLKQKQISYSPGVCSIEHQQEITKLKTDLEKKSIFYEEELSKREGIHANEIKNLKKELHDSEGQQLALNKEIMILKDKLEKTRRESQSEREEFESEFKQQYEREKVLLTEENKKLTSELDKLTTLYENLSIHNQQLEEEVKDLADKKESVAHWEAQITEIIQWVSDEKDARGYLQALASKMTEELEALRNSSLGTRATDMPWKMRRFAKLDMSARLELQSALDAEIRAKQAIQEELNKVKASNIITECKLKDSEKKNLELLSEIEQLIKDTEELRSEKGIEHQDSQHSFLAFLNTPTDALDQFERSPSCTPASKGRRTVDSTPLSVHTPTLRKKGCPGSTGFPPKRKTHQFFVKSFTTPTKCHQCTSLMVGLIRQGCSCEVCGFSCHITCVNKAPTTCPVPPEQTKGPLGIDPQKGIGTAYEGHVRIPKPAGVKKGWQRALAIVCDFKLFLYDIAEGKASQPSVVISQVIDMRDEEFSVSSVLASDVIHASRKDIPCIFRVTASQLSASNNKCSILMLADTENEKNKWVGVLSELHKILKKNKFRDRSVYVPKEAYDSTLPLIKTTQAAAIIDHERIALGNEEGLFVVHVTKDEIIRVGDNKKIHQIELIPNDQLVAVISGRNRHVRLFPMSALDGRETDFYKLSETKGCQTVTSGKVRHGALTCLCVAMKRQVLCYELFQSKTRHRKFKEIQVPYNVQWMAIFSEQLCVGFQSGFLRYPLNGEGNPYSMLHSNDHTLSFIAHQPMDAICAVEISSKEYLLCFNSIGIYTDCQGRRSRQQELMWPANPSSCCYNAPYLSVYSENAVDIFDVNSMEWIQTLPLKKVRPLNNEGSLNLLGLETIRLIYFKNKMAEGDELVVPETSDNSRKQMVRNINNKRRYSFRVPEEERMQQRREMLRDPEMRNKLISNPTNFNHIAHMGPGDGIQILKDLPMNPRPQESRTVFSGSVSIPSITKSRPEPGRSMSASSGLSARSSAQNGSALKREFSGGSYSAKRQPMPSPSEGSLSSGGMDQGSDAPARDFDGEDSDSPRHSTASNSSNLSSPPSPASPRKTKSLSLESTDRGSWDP
PAK1, sequence (Q13153 whole entry): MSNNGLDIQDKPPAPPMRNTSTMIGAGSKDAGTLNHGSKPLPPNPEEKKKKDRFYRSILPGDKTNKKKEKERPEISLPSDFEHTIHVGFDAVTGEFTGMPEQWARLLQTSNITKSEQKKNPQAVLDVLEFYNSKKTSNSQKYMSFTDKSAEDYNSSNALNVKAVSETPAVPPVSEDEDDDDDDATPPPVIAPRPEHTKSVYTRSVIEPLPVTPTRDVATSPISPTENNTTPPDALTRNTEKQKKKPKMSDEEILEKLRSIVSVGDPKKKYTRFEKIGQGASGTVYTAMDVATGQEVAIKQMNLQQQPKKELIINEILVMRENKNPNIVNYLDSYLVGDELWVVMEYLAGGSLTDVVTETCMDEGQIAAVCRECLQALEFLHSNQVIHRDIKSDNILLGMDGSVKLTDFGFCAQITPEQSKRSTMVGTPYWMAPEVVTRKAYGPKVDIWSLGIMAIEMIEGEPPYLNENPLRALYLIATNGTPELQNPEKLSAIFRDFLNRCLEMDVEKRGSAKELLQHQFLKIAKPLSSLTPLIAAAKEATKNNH

As for `CNCc1ccc(-c2[nH]c3cc(F)cc4c3c2CCNC4=O)cc1` [Rucaparib], the percent of control binding at 10 µM amounted to 100% at MAP3K4 (setting [1]); 64% on MERTK (setting [1]); 97% on MRCKA (setting [1]); 75% on PAK1 (setting [1]); 66% on PLK1 (setting [1]); 91% at TAOK3 (setting [1]). Further, the percent of control binding at 10 µM on YSK1 (setting [1]) was 87%; on p38-beta (setting [1]), 93%.

Take `Cn1ncnc1[C@H]1c2n[nH]c(=O)c3cc(F)cc(c23)N[C@@H]1c1ccc(F)cc1` [Talazoparib]: the percent of control binding at 10 µM turned out to be 90% at MAP3K4 (setting [2]); 98% at MERTK (setting [2]); 100% on MRCKA (setting [2]); 93% on PAK1 (setting [2]); 89% at PLK1 (setting [2]); 100% on TAOK3 (setting [2]). Besides, the percent of control binding at 10 µM is 80% at YSK1 (setting [2]) and 86% on p38-beta (setting [2]).

For the compound `NC(=O)c1cccc2cn(-c3ccc([C@@H]4CCCNC4)cc3)nc12` [Niraparib], the percent of control binding at 10 µM was determined as 94% at MAP3K4 (setting [3]); 99% on MERTK (setting [3]); 100% on MRCKA (setting [3]); 86% at PAK1 (setting [3]); 100% on PLK1 (setting [3]); 100% at TAOK3 (setting [3]). Also, the percent of control binding at 10 µM at YSK1 (setting [3]) and at p38-beta (setting [3]) was 99% in each case.

Consider `O=C(c1cc(Cc2n[nH]c(=O)c3ccccc23)ccc1F)N1CCN(C(=O)C2CC2)CC1` [Olaparib], for which the percent of control binding at 10 µM was 100% on MAP3K4 (setting [4]); 83% on MERTK (setting [4]); 98% at MRCKA (setting [4]); 91% at PAK1 (setting [4]); 85% on PLK1 (setting [4]); 94% on TAOK3 (setting [4]). For the same compound, the percent of control binding at 10 µM is 97% at YSK1 (setting [4]) and 90% on p38-beta (setting [4]).
